From PubChem BioAssay (NCI) come the findings set out here.

Test systems include SF-268 CNS; OVCAR-8 ovarian; NCI-H23 lung; ACHN renal; UACC-62 melanoma; COLO 205 colon; SN12C renal; SF-539 CNS; PC-3 prostate.
Holding throughout (test): NCI anticancer screen, dose series, 48 h

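All cell lines were grown in 96-well plates and treated with compound for 48 hours. GI50 is the concentration that inhibits growth by half. TGI denotes the concentration required for complete inhibition of growth.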

In the case of `CN(CCc1ccccn1)/[N+]([O-])=N/O` (tested in a mixture with another compound), the TGI in the assay with SF-268 CNS, in the assay with OVCAR-8 ovarian, in the assay on NCI-H23 lung, with ACHN renal, in the assay with UACC-62 melanoma and in the assay on COLO 205 colon was above 100 µM throughout. For the same compound, the TGI with SN12C renal and with SF-539 CNS was above 100 µM in each case.
As to `C=C1CCCC2OC(OC)CCC12` (stereo not given), the TGI in the assay with SF-268 CNS, in the assay on OVCAR-8 ovarian, in the assay with NCI-H23 lung, in the assay on ACHN renal, with UACC-62 melanoma and in the assay on COLO 205 colon was above 100 µM throughout. In addition, the TGI with SN12C renal and in the assay on SF-539 CNS was above 100 µM in each case.
Take `CCCCCCCCC1C(C)c2c([nH]c3ccccc23)C2C(=O)N(c3ccccc3)C(=O)C21` (stereo not given): the TGI with OVCAR-8 ovarian amounted to 28.4 µM; with NCI-H23 lung, 14.7 µM; in the assay with ACHN renal, 23.7 µM; in the assay with UACC-62 melanoma it was 36.4 µM; in the assay on SN12C renal, 23.8 µM; with SF-539 CNS it was 32.7 µM.
Turning to `CCOC1Oc2ccccc2C(=O)/C1=C\Nc1ccc(C(=O)O)c(O)c1` (stereo not given), the GI50 was 26.1 µM with SF-268 CNS; 19.3 µM with OVCAR-8 ovarian; 21.4 µM with NCI-H23 lung; 18.3 µM in the assay with ACHN renal; 19.6 µM in the assay with UACC-62 melanoma; 39.2 µM in the assay with PC-3 prostate. The GI50 in the assay on COLO 205 colon was 23.9 µM; in the assay on SN12C renal, 16.5 µM; in the assay with SF-539 CNS, 25.5 µM. The TGI in the assay on SF-268 CNS is 80.8 µM; in the assay on OVCAR-8 ovarian it was 54 µM; with NCI-H23 lung it was 63.1 µM; in the assay on ACHN renal it was 44.3 µM; with UACC-62 melanoma it was 43.5 µM; with PC-3 prostate, above 100 µM. The values for the TGI in the assay on COLO 205 colon, with SN12C renal and with SF-539 CNS were 56.5 µM, 36.7 µM and 59.5 µM, respectively.
For the compound `CSC(=NC(=O)c1ccccc1)SCCSC(=NC(=O)c1ccccc1)SC`, the TGI with SF-268 CNS, in the assay on OVCAR-8 ovarian, with NCI-H23 lung, in the assay on ACHN renal, in the assay on UACC-62 melanoma and in the assay on COLO 205 colon was above 100 µM in each case. In addition, the TGI with SN12C renal and in the assay with SF-539 CNS was above 100 µM each time.
On to `COc1ccc2[nH]cc(Cc3c[nH]c4ccc(OC)cc34)c2c1`, for which the GI50 with SF-268 CNS is 22.7 µM; in the assay with OVCAR-8 ovarian, 17.4 µM; with NCI-H23 lung it was 21.7 µM; in the assay with ACHN renal, 20 µM; in the assay on UACC-62 melanoma, 16 µM; with PC-3 prostate, 19.3 µM. Besides, the GI50 is 18.6 µM with COLO 205 colon, 17.5 µM in the assay on SN12C renal and 17.2 µM with SF-539 CNS. Also, the TGI in the assay with SF-268 CNS worked out at 62.5 µM; in the assay on OVCAR-8 ovarian it was 37.4 µM; with NCI-H23 lung it was 40.7 µM; with ACHN renal it was 43.9 µM; in the assay with UACC-62 melanoma it was 29.5 µM; in the assay with PC-3 prostate it was 39.4 µM. Moreover, the TGI with COLO 205 colon came out at 35.3 µM; in the assay with SN12C renal, 31.3 µM; in the assay on SF-539 CNS, 33.1 µM.
As for `CC1(C)C=C(N2CCN(C3=CC(C)(C)NC(C)(C)C3)CC2)CC(C)(C)N1`, the TGI in the assay with SF-268 CNS, in the assay on OVCAR-8 ovarian, in the assay with NCI-H23 lung, with ACHN renal, in the assay with UACC-62 melanoma and in the assay on SN12C renal was above 100 µM in each case. The same compound yielded a TGI in the assay on SF-539 CNS above 100 µM.
With `O=C(CC1(O)C(=O)Nc2c(Cl)cc(Cl)cc21)c1ccc([N+](=O)[O-])cc1` (stereo not given), the TGI with SF-268 CNS is above 100 µM; with OVCAR-8 ovarian, above 87.9 µM; in the assay on NCI-H23 lung, above 78.9 µM; in the assay with ACHN renal, above 100 µM; in the assay with UACC-62 melanoma, above 53.6 µM; with COLO 205 colon, above 92.7 µM. Besides, the TGI in the assay with SN12C renal was above 68 µM; in the assay with SF-539 CNS, above 68.7 µM.
With `CC(=O)CCn1[nH]c(=O)c(Cl)c(Cl)c1=O`, the TGI in the assay on SF-268 CNS, in the assay with OVCAR-8 ovarian, in the assay with NCI-H23 lung, with ACHN renal, in the assay on UACC-62 melanoma and in the assay with SN12C renal was above 100 µM throughout. The TGI in the assay with SF-539 CNS is above 100 µM.
Take `CC(/C=C1\CCC(CN(C)C)C1=O)c1cccc(Br)c1` (stereo not given): the TGI came out at 43.7 µM in the assay with SF-268 CNS; 36.8 µM with OVCAR-8 ovarian; 38 µM with NCI-H23 lung; 18 µM in the assay with ACHN renal; 32.4 µM with UACC-62 melanoma; 37.4 µM with COLO 205 colon. Besides, the TGI came out at 43.3 µM in the assay with SN12C renal and 33.3 µM in the assay on SF-539 CNS.
Turning to `Cl.[O-]c1cccc2cccnc12.[O-]c1cccc2cccnc12.[O-]c1cccc2cccnc12.[O-]c1cccc2cccnc12.[Ti+4]`, the GI50 in the assay on SF-268 CNS is 0.594 µM; in the assay with OVCAR-8 ovarian, 0.779 µM; with NCI-H23 lung it was 1.4 µM; with ACHN renal, 2.62 µM; with UACC-62 melanoma, 1.84 µM; in the assay on COLO 205 colon it was 1.08 µM. In addition, the GI50 in the assay on SN12C renal was 2.74 µM; in the assay with SF-539 CNS it was 2.06 µM. Moreover, the TGI was above 100 µM with SF-268 CNS; above 31.5 µM in the assay on OVCAR-8 ovarian; above 100 µM with ACHN renal; 14.6 µM in the assay with UACC-62 melanoma; 3.55 µM with COLO 205 colon; above 91.1 µM in the assay on SN12C renal. In the assay on SF-539 CNS, this compound gave a TGI of 14.4 µM.
`O=C1C(c2ccccc2)=[N+]([O-])c2cc([N+](=O)[O-])ccc21`: the TGI in the assay with SF-268 CNS was 46.9 µM; in the assay on OVCAR-8 ovarian, 32.6 µM; in the assay with NCI-H23 lung, above 100 µM; in the assay with ACHN renal, 56.9 µM; in the assay with UACC-62 melanoma, 26.9 µM; with COLO 205 colon, 36.9 µM. Moreover, the TGI with SN12C renal amounted to 59.6 µM; with SF-539 CNS, 57.3 µM.
For the compound `COc1ccc(C(=O)Nc2ccn(CCOC(=O)c3ccc(OC)cc3)c(=O)n2)cc1`, the TGI in the assay on SF-268 CNS, in the assay on OVCAR-8 ovarian, in the assay on ACHN renal, in the assay on UACC-62 melanoma, in the assay on COLO 205 colon and with SN12C renal was above 100 µM throughout. Moreover, in the assay with SF-539 CNS, the TGI was above 100 µM.
Consider `COc1ccccc1/C=C1\CCC(CN2CCOCC2)C1=O` (stereo not given), for which the TGI in the assay with SF-268 CNS was found to be 41.7 µM; with OVCAR-8 ovarian it was 16.9 µM; in the assay with NCI-H23 lung, 43.5 µM; with ACHN renal it was 30 µM; in the assay on UACC-62 melanoma, 30.3 µM; in the assay on PC-3 prostate, 30 µM. The results for the TGI in the assay on COLO 205 colon, in the assay with SN12C renal and in the assay on SF-539 CNS were 14.2 µM, 16.2 µM and 28.6 µM, respectively.
